# Measured values as given in US20130178469A1, “NOVEL ANTIVIRAL AGENTS” (SHANGHAI INSTITUTE OF ORGANIC CHEMISTRY (SIOC), priority 2010, published 2013).
# Tested on: HIV-1
# Assay: Luciferase Assay with single-round reporter virus (NLXLuc or HIV-Luc)
# Assay type: cell-based
# Conditions: Human immunodeficiency virus 1
# Excerpt: Infectivity assays using reporter viruses derived from lentiviral vectors capable of a single round of infection were used to determine the activity (EC50) of compounds. The DNA used to generate viruses for infection was the full-length HIV-1 genome which had been envelope-deleted. In addition, a reporter gene (the firefly luciferase gene from Photinus pyralis) was cloned into the nefregion of the HIV backbone for ease of assay readout. […]. Culture supernatants containing VSV-G pseudotyped virions were harvested 64 h post transfection, clarified by centrifugation to remove cell debris, and frozen at −70° C. until use.
# 293FT cells were plated out at 12000 cells per well in CellView 96-well cell culture plates (Invitrogen) 16 h prior to compound addition. Compounds were preincubated with cells for 4 h at 37° C. prior to the addition of virus sufficient to generate approximately 10000 Luciferase light units (as measured by the Victor Wallace luminometer) upon assaying using the Bright-Glo™ reagent (Promega) according to the manufacturer's instructions at 48 h post infection.
# In the tables below, this assay is referred to as NLXLuc or HIV-Luc.
row,Compound,EC50 [nM]
1,"CN1CCN(c2cc(N3CCCOC3=O)c3nc(C(=O)NCc4ccc(F)cc4)c(O)c(=O)n3c2)CC1 [Example 1.4, N-(4-fluorobenzyl)-3-hydroxy-7-(4-methylpiperazin-1-yl)-4-oxo-9-(2-oxo-1,3-oxazinan-3-yl)-4H-pyrido[1,2-a]pyrimidine-2-carboxamide]",100 to 1000
2,"CN1CCN(c2cc(N3CCCC3=O)c3nc(C(=O)NCc4ccc(F)cc4)c(O)c(=O)n3c2)CC1 [Example 2.4, 3-Hydroxy-7-(4-methyl-piperazin-1-yl)-4-oxo-9-(2-oxo-pyrrolidin-1-yl)-4H-pyrido[1,2-a]pyrimidine-2-carboxylic acid 4-fluoro-benzylamide]",100 to 1000
3,"O=C(NCc1ccc(F)cc1)c1nc2c(N3CCNCC3=O)cc(N3CCCC3)cn2c(=O)c1O [Example 4.4, 3-Hydroxy-4-oxo-9-(2-oxo-piperazin-1-yl)-7-pyrrolidin-1-yl-4H-pyrido[1,2-a]pyrimidine-2-carboxylic acid 4-fluoro-benzylamide]",100 to 1000
4,"CN1CCN(c2cc(N(C)S(C)(=O)=O)c3nc(C(=O)NCc4ccc(F)cc4)c(O)c(=O)n3c2)CC1 [Example 5.4, 3-Hydroxy-9-(methanesulfonyl-methyl-amino)-7-(4-methyl-piperazin-1-yl)-4-oxo-4H-pyrido[1,2-a]pyrimidine-2-carboxylic acid 4-fluoro-benzylamide]",10 to 20
5,"CC(C)N1CCN(c2cc(N(C)S(C)(=O)=O)c3nc(C(=O)NCc4ccc(F)cc4)c(O)c(=O)n3c2)CC1 [Example 6.3, Trifluoro-acetate4-[2-(4-fluoro-benzylcarbamoyl)-3-hydroxy-9-(methanesulfonyl-methyl-amino)-4-oxo-4H-pyrido[1,2-a]pyrimidin-7-yl]-1-isopropyl-piperazin-1-ium]",10 to 20
6,"CN(C)c1cc(N2CCOC2=O)c2nc(C(=O)NCc3ccc(F)cc3)c(O)c(=O)n2c1 [Example 7.3, 7-(dimethylamino)-N-(4-fluorobenzyl)-3-hydroxy-4-oxo-9-(2-oxooxazolidin-3-yl)-4H-pyrido[1,2-a]pyrimidine-2-carboxamide]",100 to 1000
7,"CN(C)c1cc(N2CCCOC2=O)c2nc(C(=O)NCc3ccc(F)cc3)c(O)c(=O)n2c1 [Example 8.3, 7-(dimethylamino)-N-(4-fluorobenzyl)-3-hydroxy-4-oxo-9-(2-oxo-1,3-oxazinan-3-yl)-4H-pyrido[1,2-a]pyrimidine-2-carboxamide]",20 to 100
8,"CN(C)c1cc(N2CCNCC2=O)c2nc(C(=O)NCc3ccc(F)cc3)c(O)c(=O)n2c1 [Example 9.3, 7-(dimethylamino)-N-(4-fluorobenzyl)-3-hydroxy-4-oxo-9-(2-oxopiperazin-1-yl)-4H-pyrido[1,2-a]pyrimidine-2-carboxamide]",100 to 1000
9,"O=C(NCc1ccc(F)cc1)c1nc2c(N3CCNCC3=O)cc(N3CCOCC3)cn2c(=O)c1O [Example 10.3, N-(4-fluorobenzyl)-3-hydroxy-7-morpholino-4-oxo-9-(2-oxopiperazin-1-yl)-4H-pyrido[1,2-a]pyrimidine-2-carboxamide]",100 to 1000
10,"CC1COCCN1c1cc(N2CCNCC2=O)c2nc(C(=O)NCc3ccc(F)cc3)c(O)c(=O)n2c1 (stereo not drawn) [Example 11.3, N-(4-fluorobenzyl)-3-hydroxy-7-(3-methylmorpholino)-4-oxo-9-(2-oxopiperazin-1-yl)-4H-pyrido[1,2-a]pyrimidine-2-carboxamide]",100 to 1000
11,"O=C(NCc1ccc(F)cc1)c1nc2c(N3CCNCC3=O)cc(N3CCCCC3)cn2c(=O)c1O [Example 12.3, 3-Hydroxy-4-oxo-9-(2-oxo-piperazin-1-yl)-7-piperidin-1-yl-4H-pyrido[1,2-a]pyrimidine-2-carboxylic acid 4-fluoro-benzylamide]",20 to 100
12,"CN(CC1CC1)c1cc(N2CCNCC2=O)c2nc(C(=O)NCc3ccc(F)cc3)c(O)c(=O)n2c1 [Example 13.4, 7-(Cyclopropylmethyl-methyl-amino)-3-hydroxy-4-oxo-9-(2-oxo-piperazin-1-yl)-4H-pyrido[1,2-a]pyrimidine-2-carboxylic acid 4-fluoro-benzylamide]",20 to 100
13,"CN1CCN(c2cc(N3CCNCC3=O)c3nc(C(=O)NCc4ccc(F)cc4)c(O)c(=O)n3c2)CC1 [Example 14.3, 3-Hydroxy-7-(4-methyl-piperazin-1-yl)-4-oxo-9-(2-oxo-piperazin-1-yl)-4H-pyrido[1,2-a]pyrimidine-2-carboxylic acid 4-fluoro-benzylamide]",100 to 1000
14,"O=C(NCc1ccc(F)cc1)c1nc2c(N3CCNCC3=O)cc(N3CCNCC3)cn2c(=O)c1O [Example 15.3, 3-Hydroxy-4-oxo-9-(2-oxo-piperazin-1-yl)-7-piperazin-1-yl-4H-pyrido[1,2-a]pyrimidine-2-carboxylic acid 4-fluoro-benzylamide]",100 to 1000
15,"CN1CCN(c2cc(N3CCOCC3)cn3c(=O)c(O)c(C(=O)NCc4ccc(F)cc4)nc23)C(=O)C1 [Example 16.4, 3-Hydroxy-9-(4-methyl-2-oxo-piperazin-1-yl)-7-morpholin-4-yl-4-oxo-4H-pyrido[1,2-a]pyrimidine-2-carboxylic acid 4-fluoro-benzylamide]",20 to 100
16,"CC(C)N1CCN(c2cc(N3CCN(C)CC3)cn3c(=O)c(O)c(C(=O)NCc4ccc(F)cc4)nc23)C1=O [Example 17.4, 3-Hydroxy-9-(3-isopropyl-2-oxo-imidazolidin-1-yl)-7-(4-methyl-piperazin-1-yl)-4-oxo-4H-pyrido[1,2-a]pyrimidine-2-carboxylic acid 4-fluoro-benzylamide]",20 to 100
17,"CN1CCN(c2cc(N3CCCCC3=O)c3nc(C(=O)NCc4ccc(F)cc4)c(O)c(=O)n3c2)CC1 [Example 18.4, 3-Hydroxy-7-(4-methyl-piperazin-1-yl)-4-oxo-9-(2-oxo-piperidin-1-yl)-4H-pyrido[1,2-a]pyrimidine-2-carboxylic acid 4-fluoro-benzylamide]",20 to 100
18,"O=C(NCc1ccc(F)cc1)c1nc2c(N3CCOC3=O)cc(N3CCNCC3)cn2c(=O)c1O [Example 19.4, 3-Hydroxy-4-oxo-9-(2-oxo-oxazolidin-3-yl)-7-piperazin-1-yl-4H-pyrido[1,2-a]pyrimidine-2-carboxylic acid 4-fluoro-benzylamide]",> 1000
19,"CN1CCN(c2cc(N3CCOC3=O)c3nc(C(=O)NCc4ccc(F)cc4)c(O)c(=O)n3c2)CC1 [Example 20.4, 3-Hydroxy-7-(4-methyl-piperazin-1-yl)-4-oxo-9-(2-oxo-oxazolidin-3-yl)-4H-pyrido[1,2-a]pyrimidine-2-carboxylic acid 4-fluoro-benzylamide]",20 to 100
20,"O=C(NCc1ccc(F)cc1)c1nc2c(N3CCOCC3)cc(N3CCOCC3)cn2c(=O)c1O [Example 21.5, N-(4-fluorobenzyl)-3-hydroxy-7,9-dimorpholino-4-oxo-4H-pyrido[1,2-a]pyrimidine-2-carboxamide]",100 to 1000
21,"CN1CCN(c2cc(N3CCOCC3)cn3c(=O)c(O)c(C(=O)NCc4ccc(F)cc4)nc23)C1=O [Example 29.2, N-(4-fluorobenzyl)-3-hydroxy-9-(3-methyl-2-oxoimidazolidin-1-yl)-7-morpholino-4-oxo-4H-pyrido[1,2-a]pyrimidine-2-carboxamide]",20 to 100
22,"CN1CCN(c2cc(N3CCOCC3)cn3c(=O)c(O)c(C(=O)NCc4ccc(Cl)c(Cl)c4)nc23)C1=O [Example 30, N-(3,4-dichlorobenzyl)-3-hydroxy-9-(3-methyl-2-oxoimidazolidin-1-yl)-7-morpholino-4-oxo-4H-pyrido[1,2-a]pyrimidine-2-carboxamide]",20 to 100
23,"CN1CCN(c2cc(N(C)C)cn3c(=O)c(O)c(C(=O)NCc4ccc(F)cc4)nc23)C1=O [Example 31.3, 7-Dimethylamino-3-hydroxy-9-(3-methyl-2-oxo-imidazolidin-1-yl)-4-oxo-4H-pyrido[1,2-a]pyrimidine-2-carboxylic acid 4-fluoro-benzylamide]",100 to 1000
24,"CC(C)N1CCN(c2cc(N3CCN(C)C3=O)c3nc(C(=O)NCc4ccc(F)cc4)c(O)c(=O)n3c2)CC1 [Example 32.4, 3-Hydroxy-7-(4-isopropyl-piperazin-1-yl)-9-(3-methyl-2-oxo-imidazolidin-1-yl)-4-oxo-4H-pyrido[1,2-a]pyrimidine-2-carboxylic acid 4-fluoro-benzylamide]",10 to 20
25,"O=C(NCc1ccc(F)cc1)c1nc2c(N3CCCS3(=O)=O)cc(N3CCNCC3)cn2c(=O)c1O [Example 33, 3-Hydroxy-4-oxo-9-(1,3-propanesultam)-7-piperazin-1-yl-4H-pyrido[1,2-a]pyrimidine-2-carboxylic acid 4-fluoro-benzylamide]",100 to 1000
26,"Cc1ccc2nc(C(=O)NCc3ccc(F)cc3)c(O)c(=O)n2c1 [drawing 177, reference compound]",> 1000
27,"Cc1ccc2nc(C(=O)NCc3ccc(Cl)c(Cl)c3)c(O)c(=O)n2c1 [drawing 186, reference compound]",100 to 1000
